# How the values were obtained:
# hIDO1 = molecular target: T1, hIDO1 (Homo sapiens, UniProt P14902); test: IDO inhibition activity based on HEK293T cells transfected with hIDO1 plasmid; type: cell-based; settings: HEK293T cells transfected with hIDO1, 16 hours incubation, OD 480 nm; read-out: IDO inhibitory activity of HEK293T cells (IC50)
# T1 construct: expressed in transfected cells; host or cells: HEK293T (293T) cells, transient transfection with Fugene 6
# Procedure: 1. Test Method for IDO Inhibition Activity Based on HEK293T Cells:
# The first step: cell transfection and plating. 5×10^6 293T cells were separately seeded in two T75 flasks and incubated overnight at 37° C. in a 5% CO2 incubator. […] of a mixture containing 1.5 μg of hIDO1 plasmid and 300 μL of opti-MEM was made into a mixture A; 18 μL of liposome fugene 6 was mixed with 300 μL of opti-MEM to prepare a mixture B, and allowed to stand at room temperature for 5 minutes. Mixture A and Mix B were mixed, placed at room temperature for 20 minutes, added to a 293T culture flask, and the other flask was used as a control and incubated overnight at 37° C. in a 5% CO2 incubator. The medium was discarded, digested with trypsin, and after digestion, the cells were neutralized with serum-containing medium, and the cells were blown to cause the cells to fall off. Pipette the cell suspension into a centrifuge tube and centrifuge at a speed of 800-1000 for 1-3 minutes. Aspirate the cell supernatant from the centrifuge tube. Add an appropriate volume of medium to the tube and gently blister to resuspend the cells. Count using a Vi-Cell XR cytometer. Adjust the cell suspension to the appropriate concentration. The cell suspension was added to a white-well 96-well plate at 80 μL/well. The second step: preparation and addition of the compound. Compounds were formulated in DMSO at 600 μM and the compounds were diluted in DMSO according to a multiple of the following table to give 6 concentration gradients of the compound. The 200× compound prepared in DMSO was formulated into a 10× dilution solution in proportion to the corresponding cell culture medium. Add 10 μL of 10× corresponding compound dilution and 10 μL of 10×TRP to each well, except for Min. Incubate for 16 hours in a 37° C. incubator. The third step: detection and analysis. Cell morphology was observed under an inverted microscope. 80 μL of the supernatant was added to a 3894 plate, and 10 μL of 6.1 N trichloroacetic acid was added to each well, shaken for 2 minutes, and placed in a 50-degree incubator for 30 minutes. Centrifuged at 2500 rpm for 10 minutes. Take 70 μL of the supernatant and transfer to a 3635 UV plate, add 70 μL of the reaction solution, and shake for 2 minutes to make the reaction uniform. Use EnSpire (PE) to detect data with an OD of 480 nm. The cell culture plate 3903 was allowed to stand at room temperature for 30 minutes. 100 μL/well of the cell activity detecting reagent was added to the culture plate. Mix on a shaker for 2 minutes to induce cell lysis. The 96-well plate was allowed to stand at room temperature for 10 minutes to stabilize the luminescence signal. Paste the white base film on the bottom of the plate and the plate was tested in Flexstation 3 (the relevant setting is: Illumination, integration time 500 ms). Record the experimental results obtained from the analysis.
# The IC50 value is expressed by: A: IC50 value≤10 nM; B: 10 nM<IC50 value≤50 nM; C: 50 nM<IC50 value≤100 nM; D: IC50 value>100 nM.
# IDO = molecular target: T2, IDO (Homo sapiens, UniProt P14902); test: Hela cell-based IDO inhibitory activity test (IFNγ added); settings: Hela cells with IFNγ, 48 hours incubation, OD 480 nm
# T2 construct: endogenous in cells; host or cells: HeLa cells treated with IFNγ
# T2 sequence (P14902 whole entry): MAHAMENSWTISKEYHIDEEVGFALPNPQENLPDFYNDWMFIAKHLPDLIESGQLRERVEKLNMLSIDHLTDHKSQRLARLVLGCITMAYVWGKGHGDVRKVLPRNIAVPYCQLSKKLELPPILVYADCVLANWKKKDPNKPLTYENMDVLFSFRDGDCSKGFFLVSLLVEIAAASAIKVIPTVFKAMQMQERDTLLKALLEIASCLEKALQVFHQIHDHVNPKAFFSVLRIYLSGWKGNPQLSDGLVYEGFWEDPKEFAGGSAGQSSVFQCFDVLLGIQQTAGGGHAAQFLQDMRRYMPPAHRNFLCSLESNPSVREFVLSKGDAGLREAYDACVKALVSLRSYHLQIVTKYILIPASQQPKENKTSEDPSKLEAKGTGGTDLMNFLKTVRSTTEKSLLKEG
# Procedure: 2. Hela Cell-Based IDO Inhibitory Activity Test Method
# The first step: cell plating. Prepare complete medium and mix well. Cell lines that are in good growth state are selected. Remove the cell culture flask from the incubator and check the cell name, media type and cell generation number on the bottle. The medium was discarded, digested with trypsin, and after digestion, the cells were neutralized with serum-containing medium, and the cells were blown to cause the cells to fall off. Pipette the cell suspension into a centrifuge tube and centrifuge at a speed of 800-1000 for 3-5 minutes. Aspirate the cell supernatant from the centrifuge tube. Add an appropriate volume of medium to the tube and gently blister to resuspend the cells. Count using a Vi-Cell XR cytometer. Adjust the cell suspension to the appropriate concentration. The cell suspension was added to a white-well 96-well plate at 80 μl/well according to the schematic below. The second step: preparation and addition of the compound. Compounds were formulated in DMSO at 600 μM and the compounds were diluted in DMSO according to a multiple of the following table to give 6 concentration gradients of the compound. The 200× compound prepared in DMSO was formulated into a 10× dilution solution in proportion to the corresponding cell culture medium. After 24 hours of cell seeding, 10 μL of 10× corresponding compound dilution and 10 μL of 10×IFNγ were added to each well. Incubate for 48 hours in a 37° C. incubator. The third step: detection and analysis. Cell morphology was observed under an inverted microscope. 80 μL of the supernatant was added to a 3894 plate, 10 μL of 6.1 N trichloroacetic acid was added to each well, shaken for 2 minutes, and placed in a 50-degree incubator for 30 minutes. Centrifuge, 2500 rpm for 10 minutes.
# Take 70 μL of the supernatant and transfer to a 3635 UV plate, add 70 μL of the reaction solution, and shake for 2 minutes to make the reaction uniform. Use EnSpire (PE) to detect data with an OD of 480 nm. The cell culture plate 3903 was allowed to stand at room temperature for 30 minutes. 100 μL/well of the cell activity detecting reagent was added to the culture plate. Mix on a shaker for 2 minutes to induce cell lysis. The 96-well plate was allowed to stand at room temperature for 10 minutes to stabilize the luminescence signal. Paste the white base film on the bottom of the plate and tested with Flexstation3 plate (the relevant setting is: Illumination, integration time 500 ms). Record the experimental results obtained from the analysis.
# The IC50 value is expressed in the following manner: […]
# T1 sequence (P14902 whole entry): as above
SMILES,IC50 (hIDO1) [µM],IC50 (IDO) [µM]
C#Cc1ccc(NC(=O)C2([C@H]3C[C@H]4C[C@@H](c5ccnc6ccc(F)cc56)C[C@H]4C3)CC2)nc1 [Compound 96],≤ 0.01,≤ 0.005
C#Cc1ccc(NC(=O)C2([C@@H]3C[C@H]4C[C@@H](c5ccnc6ccc(F)cc56)C[C@H]4C3)CC2)cn1 [Compound 93],≤ 0.01,≤ 0.005
O=C(C[C@@H]1C[C@@H]2C[C@@H](c3ccnc4ccc(F)cc34)C(O)[C@@H]2C1)Nc1ccc(Cl)cc1 (stereo partly drawn) [Compound 50],0.01 to 0.05,0.005 to 0.025
N#Cc1ccc(NC(=O)C2([C@@H]3C[C@H]4C[C@@H](c5ccnc6ccc(F)cc56)C[C@H]4C3)CC2)nc1 [Compound 94],0.01 to 0.05,≤ 0.005
O=C(Nc1ccc(Cl)cn1)C1([C@@H]2C[C@H]3C[C@@H](c4ccnc5ccc(F)cc45)C[C@H]3C2)CC1 [Compound 92],≤ 0.01,≤ 0.005
CC(C(=O)Nc1ccc(Cl)cc1)[C@H]1C[C@H]2C[C@@H](c3ccnc4ccc(F)cc34)C[C@H]2C1 (mixture of isomers) [Compound 1],≤ 0.01,≤ 0.005
CC(C(=O)Nc1ccc(Cl)nc1)[C@@H]1C[C@]2(C)C[C@H](c3ccnc4ccc(F)cc34)C[C@]2(C)C1 (stereo partly drawn) [Compound 42],0.01 to 0.05,≤ 0.005
C#Cc1ccc(NC(=O)C[C@@H]2C[C@@H]3C[C@H](c4ccnc5ccc(F)cc45)C[C@@H]3C2)nc1 [Compound 67],≤ 0.01,≤ 0.005
"C[C@H](C(=O)Nc1ccc(Cl)cc1)[C@H]1C[C@H]2C[C@@H](c3ccnc4ccc(F)cc34)C[C@H]2C1 (single isomer, unassigned) [Compound 1B]",≤ 0.01,≤ 0.005
CC(C(=O)Nc1ccc(C#N)cn1)[C@H]1C[C@H]2C[C@@H](c3ccnc4ccc(F)cc34)C[C@H]2C1 (stereo partly drawn) [Compound 73],≤ 0.01,≤ 0.005
CC(C(=O)Nc1ccc(Cl)cc1)[C@@H]1C[C@]2(C)C[C@H](c3ccnc4ccc(F)cc34)C[C@]2(C)C1 (stereo partly drawn) [Compound 40],0.01 to 0.05,≤ 0.005
O=C(CC1=C[C@H]2C[C@@H](c3ccnc4ccc(F)cc34)C[C@H]2C1)Nc1ccc(Cl)cc1 (racemic) [Compound 57],0.01 to 0.05,≤ 0.005
CC(C(=O)Nc1ccc(Cl)cc1)[C@@H]1C[C@@H]2CN(c3ccnc4ccc(F)cc34)C[C@@H]2C1 (stereo partly drawn) [Compound 9],> 0.1,> 0.1
CC(C(=O)Nc1ccc(C#CC2CC2)cn1)[C@H]1C[C@H]2CC(c3ccnc4ccc(F)cc34)C[C@H]2C1 (stereo partly drawn) [Compound 79],0.01 to 0.05,> 0.1
O=C(Nc1ccc(Cl)cn1)C1([C@H]2C[C@H]3C[C@@H](c4ccnc5ccc(F)cc45)C[C@H]3C2)CC1 [Compound 95],≤ 0.01,≤ 0.005
C#Cc1ccc(NC(=O)C(C)(C)[C@H]2C[C@H]3C[C@@H](c4ccnc5ccc(F)cc45)C[C@H]3C2)cn1 [Compound 87],≤ 0.01,≤ 0.005
CC(C(=O)Nc1ccc(Cl)cc1)C1=C[C@H]2C[C@@H](c3ccnc4ccc(F)cc34)C[C@H]2C1 (stereo partly drawn) [Compound 38],≤ 0.01,≤ 0.005
O=C(C[C@@H]1C[C@@H]2C[C@H](c3ccnc4ccc(F)cc34)C[C@@H]2C1)Nc1ccc(Cl)cc1 [Compound 2],0.01 to 0.05,0.005 to 0.025
CC(C)(C(=O)Nc1ccc(Cl)nc1)[C@H]1C[C@H]2C[C@@H](c3ccnc4ccc(F)cc34)C[C@H]2C1 [Compound 85],≤ 0.01,0.005 to 0.025

SMILES,IC50 (hIDO1) [µM],IC50 (IDO) [µM]
CC(C)(C(=O)Nc1ccc(Cl)cn1)[C@H]1C[C@H]2C[C@@H](c3ccnc4ccc(F)cc34)C[C@H]2C1 [Compound 84],≤ 0.01,> 0.1
O=C(C[C@@H]1C[C@@H]2CC(c3ccncc3F)=C[C@@H]2C1)Nc1ccc(Cl)cc1 [Compound 53],–,> 0.1
O=C(Nc1ccc(Cl)cc1)N1C[C@H]2C[C@@H](c3ccnc4ccc(F)cc34)C[C@H]2C1 [Compound 48],–,> 0.1
O=C(Nc1ccc(Cl)cn1)/C(F)=C1/C[C@@H]2C[C@H](c3ccnc4ccc(F)cc34)C[C@@H]2C1 [Compound 105],–,> 0.1
O=C(C[C@]1(O)C[C@H]2C[C@@H](c3ccnc4ccc(F)cc34)C[C@H]2C1)Nc1ccc(Cl)cc1 [Compound 58],–,0.005 to 0.025
N#Cc1ccc(NC(=O)C[C@@H]2C[C@@H]3C[C@H](c4ccnc5ccc(F)cc45)C[C@@H]3C2)cn1 [Compound 102],–,≤ 0.005
CC(C(=O)Nc1ccc(C#N)cc1)[C@H]1C[C@H]2C[C@@H](c3ccnc4ccc(F)cc34)C[C@H]2C1 (stereo partly drawn) [Compound 36],–,≤ 0.005
O=C(C[C@H]1C[C@@H]2CC(c3ccncc3F)=C[C@@H]2C1)Nc1ccc(Cl)cc1 [Compound 54],–,> 0.1
C#Cc1ccc(NC(=O)C[C@@H]2C[C@H]3CC(c4ccnc5ccc(F)cc45)C[C@H]3C2)nc1 (stereo partly drawn) [Compound 25],–,≤ 0.005
CC(C(=O)Nc1ccc(F)c(Br)c1)[C@H]1C[C@H]2C[C@@H](c3ccnc4ccc(F)cc34)C[C@H]2C1 (stereo partly drawn) [Compound 33],–,0.025 to 0.1
CC#Cc1ccc(NC(=O)C(C)[C@H]2C[C@H]3C[C@@H](c4ccnc5ccc(F)cc45)C[C@H]3C2)cn1 (stereo partly drawn) [Compound 83],–,> 0.1
O=C(C[C@@H]1C[C@@H]2CC(c3ccnc4ccc(F)cc34)=C[C@@H]2C1)Nc1ccc(Cl)cn1 [Compound 61],–,0.005 to 0.025
O=C(C[C@H]1C[C@H]2CC(c3ccnc4ccc(F)cc34)C[C@H]2C1)Nc1ccc2[nH]ncc2c1 (stereo partly drawn) [Compound 14],–,> 0.1
CC#Cc1ccc(NC(=O)C(C)(C)[C@H]2C[C@H]3C[C@@H](c4ccnc5ccc(F)cc45)C[C@H]3C2)cn1 [Compound 91],–,≤ 0.005
CC(C(=O)Nc1nncs1)[C@H]1C[C@H]2C[C@@H](c3ccnc4ccc(F)cc34)C[C@H]2C1 (stereo partly drawn) [Compound 31],–,> 0.1
CC(C(=O)Nc1ccc(Cl)cc1)[C@H]1C[C@]2(C)C[C@H](c3ccnc4ccc(F)cc34)C[C@]2(C)C1 (stereo partly drawn) [Compound 41],–,0.005 to 0.025
CC(C(=O)Nc1ccc(C(F)(F)F)cn1)[C@H]1C[C@H]2C[C@@H](c3ccnc4ccc(F)cc34)C[C@H]2C1 (stereo partly drawn) [Compound 81],–,0.005 to 0.025
CC(C)(C(=O)Nc1ccc(Cl)cc1)[C@H]1C[C@H]2C[C@@H](c3ccnc4ccc(F)cc34)C[C@H]2C1 [Compound 60],–,≤ 0.005

# Source: patent US11266640B2, “Polycyclic compound acting as IDO inhibitor and/or IDO-HDAC dual inhibitor” (Hangzhou Innogate Pharma Co., Ltd., priority 2017, dated 2022)
